# Values joined by “and” are separate entries in the source; they are usually repeats but may differ in a detail not shown here. Equal entries are not always repeated.
# Key:
# hOATP1B3 = target: T1, hOATP1B3 (Homo sapiens, UniProt Q9NPD5); assay: Inhibition of vincristine uptake in HEK293 cells overexpressing hOATP1B3; settings: inhibitor 15 min pre-treatment
# T1 sequence (Q9NPD5 1-702): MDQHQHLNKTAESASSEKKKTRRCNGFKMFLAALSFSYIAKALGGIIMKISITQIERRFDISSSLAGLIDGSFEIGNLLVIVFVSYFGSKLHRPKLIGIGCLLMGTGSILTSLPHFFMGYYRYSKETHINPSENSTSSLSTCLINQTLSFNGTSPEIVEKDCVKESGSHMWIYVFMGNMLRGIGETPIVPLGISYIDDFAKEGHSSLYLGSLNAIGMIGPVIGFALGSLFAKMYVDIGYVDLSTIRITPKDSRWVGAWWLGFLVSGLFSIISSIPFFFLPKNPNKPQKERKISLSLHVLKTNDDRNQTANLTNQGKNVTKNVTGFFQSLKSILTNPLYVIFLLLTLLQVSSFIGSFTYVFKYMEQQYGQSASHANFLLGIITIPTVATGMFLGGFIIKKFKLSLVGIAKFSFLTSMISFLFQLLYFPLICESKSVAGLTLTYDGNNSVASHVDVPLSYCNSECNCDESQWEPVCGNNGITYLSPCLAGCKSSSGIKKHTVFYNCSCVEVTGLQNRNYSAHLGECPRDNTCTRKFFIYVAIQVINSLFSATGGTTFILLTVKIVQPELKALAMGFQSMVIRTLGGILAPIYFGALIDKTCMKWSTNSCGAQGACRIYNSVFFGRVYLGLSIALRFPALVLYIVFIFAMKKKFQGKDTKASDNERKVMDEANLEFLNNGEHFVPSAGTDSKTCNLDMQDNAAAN
# [1] = Plasma pharmacokinetics of vincristine in mice; settings: for concentration at 1 h / concentration at 4 h / concentration at 0.5 h / concentration at 0.25 h / AUC(0-t) / Cmax / concentration at 2 h: mouse, in vivo; for AUC(0-t) / Cmax: male; for AUC(0-t): AUC0-4h
# Method: were collected at the final time point. […]
# specimens were stored at -80°C until further processing. […]
# stainless steel bead (Qiagen) and processed for 4 min at 40 Hz. Finally, the beads were removed, and the homogenized samples were stored at -80°C until analysis by LC-MS/MS.
# Pharmacokinetic parameters were calculated by non -compartmental analysis using Phoenix WinNonlin version 8.0 (Certara). Peak plasma concentration (C max) was determined by visual inspection of the data from the concentration-time curves. The linear trapezoidal rule was used to obtain the area under the plasma concentration-time curve (AUC), and drug levels in tissues were corrected for […]
# Determination of drug levels.
# Quantiva triple quadrupole mass spectrometer from Thermo Fisher Scientific was used for LC-MS/MS […]
# column was maintained at 50°C. […]
# quantification was 5 ng/mL.
# 450 °C. […] Precursor molecular ions and […]
# dose of 4 mg/kg. […] The sample
# Morphologic and morphometric evaluation. […]
# for light microscopy and morphometric analysis.
# rOATP1A5 = rOATP1A5 (Rattus norvegicus, UniProt O88397); assay: Vincristine uptake screen, HeLa cells overexpressing rOATP1A5; format: in vitro ADME
# Method: Relative uptake is expressed as percentage change compared with empty vector controls (n = 4–14 per group). […] Human OATP1B1 and OATP1B3 transporter–overexpressed cells were used as positive controls; empty vector controls were used as the negative control. […] Mechanical allodynia (C), thermal hyperalgesia (D), and sciatic nerve maximal action potential amplitudes (E) are expressed as percentage change relative to baseline values (n = 6–8 per group). Statistical analysis was performed using a 2-way ANOVA with Bonferroni’s post hoc test. **P < 0.01, ***P < 0.001, ****P < 0.0001, compared with baseline values. […] Data are shown as mean ± SEM. […]
# transfected with transporters of interest, including hOAT1, hOAT3, hOAT4, hOATP1A2, hOATP3A1, hOATP4A1, hOATP5A1, hOATP1C1, hOATP1B1, hOATP1B3, hOATP2B1, hOCT1, hOCT2, hOCTN1, hOCTN2, hASBT, hNTCP, hNPT1, hMATE1, hOSTα/β, hPEPT1, hPEPT2, rOatp1a1, rOatp1a4, rOatp1a5, rOatp1b2, rNtcp, rAsbt, rOat1, and rOct1. Cells were transfected with expression plasmid or vector control lacking any insert using Lipofectin reagent (Invitrogen). Sixteen hours thereafter, cells were washed with transport media (OPTIMEM, Invitrogen) and treated with radiolabeled drug. […] The cellular radioactivity was quantified by liquid scintillation counting as described above. […]
# [2] = DBA/1LacJ, ip, 1 mg/kg, Plasma concentration of vincristine
# [3] = ip, 1 mg/kg, Plasma concentration of vincristine
# rOATP1A5, sequence (O88397 whole entry): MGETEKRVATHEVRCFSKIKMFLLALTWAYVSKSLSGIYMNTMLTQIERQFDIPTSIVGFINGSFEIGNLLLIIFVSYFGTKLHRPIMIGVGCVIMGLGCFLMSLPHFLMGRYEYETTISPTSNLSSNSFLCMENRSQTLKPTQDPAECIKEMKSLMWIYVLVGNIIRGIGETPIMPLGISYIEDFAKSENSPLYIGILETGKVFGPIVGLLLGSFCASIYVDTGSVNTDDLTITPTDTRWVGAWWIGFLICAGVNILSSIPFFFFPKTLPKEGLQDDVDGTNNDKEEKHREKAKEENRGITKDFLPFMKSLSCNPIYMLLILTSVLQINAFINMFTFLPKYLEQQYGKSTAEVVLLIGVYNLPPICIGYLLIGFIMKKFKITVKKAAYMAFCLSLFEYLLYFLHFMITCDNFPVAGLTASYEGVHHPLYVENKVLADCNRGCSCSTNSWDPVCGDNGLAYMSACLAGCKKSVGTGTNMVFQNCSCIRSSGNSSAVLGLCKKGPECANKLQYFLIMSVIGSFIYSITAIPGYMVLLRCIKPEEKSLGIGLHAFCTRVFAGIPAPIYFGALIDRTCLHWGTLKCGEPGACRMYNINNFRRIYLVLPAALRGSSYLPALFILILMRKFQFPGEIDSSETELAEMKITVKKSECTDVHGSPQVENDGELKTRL
smiles,measurement,setting,value
"Cc1cn(-c2cc(NC(=O)c3ccc(C)c(Nc4nccc(-c5cccnc5)n4)c3)cc(C(F)(F)F)c2)cn1 [Nilotinib, nilotinib]",Vincristine uptake (% of vehicle),hOATP1B3,56.9618 % of vehicle and 79.3107 % of vehicle and 46.7964 % of vehicle and 63.7354 % of vehicle and 65.1694 % of vehicle and 69.9849 % of vehicle
"CC[C@]1(O)C[C@H]2CN(CCc3c([nH]c4ccccc34)[C@@](C(=O)OC)(c3cc4c(cc3OC)N(C=O)[C@H]3[C@@](O)(C(=O)OC)[C@H](OC(C)=O)[C@]5(CC)C=CCN6CC[C@]43[C@@H]65)C2)C1 [Vincristine, vincristine]",concentration at 1 h,"[1]; DBA/1LacJ, 1 mg/kg, Plasma concentration of vincristine, OATP1B2(-/-) + Vehicle, vincristine 1 mg/kg, 1 h",88.4 ng/mL
same,concentration at 4 h,"[1]; DBA/1LacJ, 1 mg/kg, Plasma concentration of vincristine, OATP1B2(-/-) + Vehicle, vincristine 1 mg/kg, 4 h",65.5 ng/mL
same,concentration at 0.5 h,"[1]; DBA/1LacJ, Plasma concentration of vincristine, OATP1B2(-/-) + Nilotinib (100 mg/kg pretreatment), vincristine 1 mg/kg, 0.5 h",225 ng/mL
same,concentration at 1 h,"[1]; DBA/1LacJ, Plasma concentration of vincristine, OATP1B2(-/-) + Nilotinib (100 mg/kg pretreatment), vincristine 1 mg/kg, 1 h",108 ng/mL
same,concentration at 0.25 h,[1]; [2],707 ng/mL
same,concentration at 0.5 h,[1]; [2],599 ng/mL
same,concentration at 1 h,[1]; [2],315 ng/mL
same,concentration at 4 h,[1]; [2],90.9 ng/mL
same,Plasma concentration of Vincristine,"[1]; Wild-type mice, 2 h",104.1 ng/mL
same,AUC(0-t),"[1]; DBA/1LacJ, ip, 1 mg/kg",1290 ± 49.8 ng·h/mL
same,Cmax,"[1]; DBA/1LacJ, ip, 1 mg/kg",1130 ± 148 ng/mL
same,AUC(0-t),"[1]; ip, 1 mg/kg",1060 ± 36.2 ng·h/mL
same,Cmax,"[1]; ip, 1 mg/kg",1190 ± 113 ng/mL
same,concentration at 1 h,"[1]; 1 mg/kg, Plasma concentration of Vincristine (ng/mL), OATP1A/1B(-/-) mice, 1 h",195 ng/mL
same,concentration at 2 h,"[1]; 1 mg/kg, Plasma concentration of Vincristine (ng/mL), OATP1A/1B(-/-) mice, 2 h",89.9 ng/mL
same,concentration at 2 h,"[1]; 1 mg/kg, Plasma concentration of Vincristine (ng/mL), Wild-type mice, 2 h",112 ng/mL
same,concentration at 1 h,"[1]; 1 mg/kg, Plasma concentration of vincristine, Wild-type + Vehicle, vincristine 1 mg/kg, 1 h",116 ng/mL
same,concentration at 0.5 h,"[1]; Plasma concentration of vincristine, Wild-type + Nilotinib (100 mg/kg pretreatment), vincristine 1 mg/kg, 0.5 h",124 ng/mL
same,concentration at 1 h,"[1]; Plasma concentration of vincristine, Wild-type + Nilotinib (100 mg/kg pretreatment), vincristine 1 mg/kg, 1 h",104 ng/mL
same,concentration at 0.25 h,[1]; [3],735 ng/mL
same,concentration at 0.5 h,[1]; [3],376 ng/mL
same,concentration at 1 h,[1]; [3],273 ng/mL
same,concentration at 4 h,[1]; [3],114 ng/mL
same,concentration at 4 h,"[1]; ip, 1 mg/kg, Plasma concentration of vincristine, Wild-type mice, 1 mg/kg i.p., 4 h",102 ng/mL
same,Vincristine uptake (% of vector control),rOATP1A5,107.00 % of vector control and 77.00 % of vector control and 126.00 % of vector control and 95.00 % of vector control and 111.00 % of vector control and 145.00 % of vector control and 98.00 % of vector control

# From PMC10443802, “Targeting a xenobiotic transporter to ameliorate vincristine-induced sensory neuropathy” (JCI Insight, 2023)
